Several values for one entry are separate records, joined by “and”; a condition that tells them apart may be missing. Equal entries are not always repeated.
Assays:
[1] = microbe, parasite or virus in culture; settings: Mycobacterium tuberculosis, 72 h, read-out: pIC50 (converted)
[2] = microbe, parasite or virus in culture; settings: Mycobacterium tuberculosis, 96 h, read-out: pIC50 (converted)
[3] = tested on: Mycobacterium tuberculosis; assay: Cornell M. t heat shock assay; assay type: functional, organism-based; settings: for IC50: Mycobacterium tuberculosis
Plasmodium falciparum = assay: Calibr Malaria Delayed Death Assay SOP; assay type: functional, organism-based; settings: for IC50: Plasmodium falciparum

SMILES | IC50 [3] [µM] | further results
Nc1cc(N2CCOCC(Cc3ccc4[nH]ccc4c3)C2)ncn1 (centres undefined) |  | IC50 [1]: 28.8 µM; IC50 [2]: 13.4 µM; pIC50 [3]: < 4 and < 4.31
COc1ccc(CNC(Cc2ccsc2)c2ccc(C)cn2)c(OC)c1 (centres undefined) | 17.9 | IC50 [1]: 48.5 µM; IC50 [2]: > 50.1 µM
CCn1ccc(-c2cc(NCCCOc3cccc(C)c3)nc(C)n2)n1 | 55.1 | IC50 [1]: 30.2 µM; IC50 [2]: 18.9 µM; pIC50 [3]: 4.417
Cc1cc2c(cc1Cl)C=CC1(CCN(CC(=O)NC3CCCC3)CC1)O2 | 49.9 | IC50 [1]: 45.4 µM; IC50 [2]: > 50.1 µM
Cl.Clc1cccc(N[C@H]2CCCN[C@H]2Cc2ccccc2)c1 | 7.22 | IC50 [1]: 8.59 µM; IC50 [2]: 17 µM; pIC50 (Plasmodium falciparum): 6.045; IC50 (Plasmodium falciparum): 0.981 µM
c1cnc(N2CCC(c3csc(Nc4cnccn4)n3)CC2)nc1 | > 100 | IC50 (Plasmodium falciparum): 0.0108 µM
Cc1cc(C(=O)N2CCN(c3nc4c(C(C)C)cccc4s3)CC2)no1 | 57.9 | IC50 [1]: > 50.1 µM; IC50 [2]: 42.6 µM
Cc1cc(N2CCOCC2)ccc1NC(C)c1nc(C(C)C)no1 (centres undefined) | > 100 | 
COc1cc(C(=O)Nc2nc(C)no2)ccc1OC(F)F | 41.3 | pIC50 [3]: 4.585
CNc1cc(C2CN(Cc3scnc3C)CCO2)nc(C)n1 (centres undefined) | > 100 | 
c1ccc(CCN2CCCC2c2cncc(Nc3nncs3)n2)cc1 (centres undefined) | 25.5 | 
Cc1ccc(CN(CCCn2ccnc2)Cc2c(F)cccc2F)s1.O=C(O)CC(O)(CC(=O)O)C(=O)O | 23.6 | pIC50 [3]: 4.654
Cc1cnn(CC2CCCN2Cc2nc(C)c3ccccc3n2)c1 (centres undefined) | 34.9 | 
COc1cccc(CN2CCCC2c2cncc(Nc3nncs3)n2)c1 (centres undefined) | 26.9 | 
CCOC(=O)C(C)Nc1cccc(COCc2ccco2)c1 (centres undefined) | > 100 | 
O=C(NCCc1cccc(F)c1)C1(n2cnnn2)CCCCC1 | 11.1 | IC50 [1]: 46.9 µM; IC50 [2]: 43.2 µM
c1ccc(-c2nc(CN3CCCC(Cn4cncn4)C3)cs2)cc1 (centres undefined) | 54.6 | 
O=C(Cc1c[nH]c2ccccc12)N1CCC(Nc2ccccc2)CC1 | > 100 | 
CCOc1ncccc1NC(=O)N1CCN(c2ccc(O)cc2)CC1 | > 100 | 
CC(CCSc1ccccc1)N1CCN(C(=O)c2cccs2)CC1 (centres undefined) | > 100 | 
Cc1ccc(CNC(c2ccccc2)c2nccn2C)cc1 (centres undefined) | 19.9 | 
Cc1ccccc1OC1CCN(CC(=O)Nc2cn(C)nc2C)CC1 | > 100 | 
COc1cccc(C(NCc2ccc(SC)cc2)c2nccn2C)c1 (centres undefined) | 6.39 | 
Cc1noc(NC(=O)c2cccc(Br)c2)n1 | 16 | IC50 [1]: 46.3 µM; IC50 [2]: 41.8 µM; pIC50 [3]: 4.54
Cc1cc2ccccc2n1CCC(=O)N1CCN(C)CC1C(N)=O (centres undefined) | > 100 | 
Cc1cccc(CN2CCN(C(=O)c3cc(C4CC4)[nH]n3)CC2)c1 | 77.1 | IC50 [1]: 25.8 µM; IC50 [2]: 25 µM

SMILES | IC50 [3] [µM] | further results
Cc1nc(-c2ccccc2)cc2nn(CC(N)=O)c(=O)n12 | > 100 | 
O=C(NCCC(O)c1ccoc1)Nc1cccs1 (centres undefined) | > 100 | 
Clc1cccc(C[C@@H]2NCCC[C@@H]2Nc2cccc(Cl)c2)c1 | 5.94 | IC50 [1]: 6.67 µM; IC50 [2]: 9.04 µM
COc1ccc(CCNCc2c(C)nn(C)c2N(C)C)cc1OC | > 100 | 
Cc1ccc(O)c(CN(CCCn2ccnc2)Cc2ccc(C)s2)c1.O=C(O)CC(O)(CC(=O)O)C(=O)O | 42.9 | pIC50 [3]: 4.427
Cc1cc(-c2cnc(NCc3ccccn3)nc2C(C)C)on1 | > 100 | 
CC(C)C1CCCN1CCCc1nc(-c2cccs2)no1 (centres undefined) | > 100 | 
O=S(=O)(Nc1cnc(N2CCCC2)nc1)c1ccc(OC(F)(F)F)cc1 | > 100 | 
COc1cc(CNC(c2ccccc2)c2nccn2C)cc(OC)c1 (centres undefined) | 2.41 | 
COc1cccc(S(=O)(=O)NC(=O)CCC2CCCC2)c1 | > 100 | 
CCC(CN1CCOCC1)n1cncc1-c1ccc2c(c1)CCN2CC (centres undefined) | 98.5 | 
CC1c2ccc(F)cc2CCN1C(=O)c1[nH]c(=O)[nH]c(=O)c1N (centres undefined) | > 100 | 
CCCNC(=O)NC(=O)CNC(C)(C)c1ccc2c(c1)OCCO2 | 23.5 | IC50 [1]: 19 µM; IC50 [2]: 13.3 µM
CN1CCCCC1c1ncc2c(n1)CCN(Cc1ccc(Cl)c(F)c1)C2 (centres undefined) | 50.6 | pIC50 (Plasmodium falciparum): 5.794; IC50 (Plasmodium falciparum): 1.55 µM; pIC50 [3]: 4.295
CCNc1ncc(C(=O)NCc2ccc3nsnc3c2)cn1 | > 100 | 
COc1ccccc1C(C)N(C)Cc1nc2c(cnn2C)c(=O)[nH]1 (centres undefined) | > 100 | 
COc1ccc(CNC(Cc2ccsc2)c2ncccc2C)cc1OC (centres undefined) | > 49 | 
c1nnc(Nc2cncc(C3CCCN3CC3CC3)n2)s1 (centres undefined) | 29.8 | 
CN1CCCCC1c1ncc2c(n1)CCN(CCCc1ccccc1)C2 (centres undefined) | 39.4 | IC50 [1]: 44.5 µM; IC50 [2]: 41.2 µM; pIC50 [3]: 4.46
CC(C)Cc1ncc2c(n1)CN(c1nccc(NC(C)C)n1)C2 | 34.5 | IC50 [1]: 23.9 µM; IC50 [2]: 15.5 µM
Cc1cnc(NC(=O)c2csc(NCC(C)C)n2)s1 | 1.99 | 
CCOc1cccc(COC(=O)c2cscn2)n1 | > 100 | 
O=C(CCC(=O)N1CCC(c2noc3cc(F)ccc23)CC1)NC1CC1 | > 100 | 
Nc1cc(-c2cccs2)nn(CC(=O)NCC2CCCCC2)c1=O | > 100 | 
c1nnc(Nc2cncc(C3CCCN3)n2)s1 (centres undefined) | 6.43 | 

Source: ChEMBL document CHEMBL3988442, “University of Dundee, Small-Polar-MMV Screening Library” (2021)
